Results reported in article PMC10447463, “Data-mining unveils structure–property–activity correlation of viral infectivity enhancing self-assembling peptides” (Nature Communications, 2023).
Several values for one entry are separate records, joined by “and”; a condition that tells them apart may be missing. Identical values can stand only once.

What was measured:
[1] = Aggregate analysis by widefield fluorescence microscopy; assay type: physicochemical; conditions: for Number of Aggregates / Aggregate Number: ThT-stained aggregates > 10 µm2 in 1330 µm × 1330 µm, 1 mg/mL 1 d, diluted to 0.1 mg/mL with 50 µM ThT, 3D object counter ImageJ, triplicate
Protocol: 4 µL of 1 mg/mL peptide fibrils solution is added to a 20 µL, 50 µM ThT–solution in PBS. The mixture is incubated for 15 min at RT to allow binding of ThT dye with β–sheet rich structures. For reference PBS (4 µL) was added instead of peptide fibril solution. The samples were placed in black UV Star® 384 microliter well–plates (Greiner bio–one). Fluorescence spectra were recorded on an Infinite® M1000 PRO microplate reader (Tecan) at λem = 488 nm upon excitation at λex = 440 nm with 10 nm bandwidths and multiple reads per well (3×3). Measurements were repeated in triplicates and averaged with standard deviation. A peptide fibril was considered as ThT-active if the fluorescence intensity was at least twice as strong compared to the control (PBS containing 10% DMSO). Zeta-Potential. For the determination of the surface charge of aggregated peptides zeta-potential measurements were conducted with a Zetasizer Nano ZS, Malvern Instruments. Unless stated otherwise the peptides were dissolved from DMSO (10 mg/mL) in PBS (pH 7.4) to concentration of 1 mg/mL and incubated for 1d at RT. Just before the measurement the 60 µL of the peptides were further diluted in 600 µL KCl (aq, 1 mM) in a 1 mL disposable folded capillary cells (DTS–1060, Zetasizer Nano series, Malvern). The zeta potential of the peptides was derived from the electrophoretic mobility based on the Smoluchowski formula. All measurements were averaged over two individually performed experiments and conducted in triplicates for each sample. Aggregate analysis. […] Furthermore, fluorescence microscopy was conducted by staining 1 µL preformed fibrils (1 mg/mL) with 9 µL ThT (50 µM). Brightfield microscopy was performed simultaneously to evaluate aggregation also for non ThT-active fibrils. The measurements were performed on a Leica DMi8 microscope with 10x air objective and equipped with a Leica MC170 HD camera with a filter setting λem = 527/30 nm upon excitation at λex = 480/40 nm) and processed with the Leica LASX software. To quantify size and number of microscopic aggregation of particles > 10 µm^2 at least 3 independently measured images were analyzed via the 3D object counter analysis tool of ImageJ, v 1.53f51. Sum–frequency generation. The SFG experiments were carried out with a femtosecond Ti: Sapphire amplified laser system (Spitfire Ace, Spectra–Physics, 800 nm, 40 fs, 1 kHz) with 5 W output power. We used 2 W to pump an optical parametric amplifier (TOPAS, light conversion) with a non–collinear difference frequency generation stage to generate broadband IR pulses. Another 1 W of the laser output passed through an etalon to generate narrowband visible pulses (10 cm^-1). The incident angles of the visible and IR beams were 36° and 41° with respect to the surface normal, respectively. The visible (13 µJ) and IR (5 µJ) pulses were overlapped spatially and temporally at the sample position. Subsequently, the generated SFG pulse was guided into a spectrograph (Acton SP 300i, Princeton Instruments), and detected with an EMCCD (Newton, Andor Technology). To avoid IR absorption of water vapor, we purged N2 for the measurement. All spectra were collected in the ssp (denoting s-, s- and p-polarized SFG, visible and IR, respectively) polarization combination. The spectra were normalized to the non–resonant signal taken from z–cut quartz after subtracting a background spectrum.
Table S8 Summary of aggregate analysis from widefield microscopy measurements (Figure S32). The Number of aggregated peptides, the median size area, average size area
and the cumulative total size area of all particles (> 10 µm2) in an area of 1330 µm × 1330 µm was determined via automated 3D object counting (ImageJ) in triplicate
measurements (Std. Dev.).
Aggregate Std. Dev. Std. Dev. Std. Dev. Std. Dev.
Sequence Abs. Inf. / Std. Dev. / Count Rate / Std. Dev. Number Aggregate Median Area Median Area Average Area Average Area Total Area/ Total Area/ […]

[2] = previously reported peptides only; ref sieste 2021 or Schilling2019; cited from earlier work
Excerpt: Supplement 41467_2023_40663_MOESM7_ESM.zip/FigS17.csv, table | column: Conversion Rate / % ( from sieste 2021 or Schilling2019)

TZM-bl cells = assay type: cell-based; conditions: CellTiter-Glo, mean of n = 3 replicates
Protocol: The cell viability after addition of peptides to TZM–bl cells was studied via the CellTiter–Glo assay. To this end, 10,000 cells were seeded and on the next day serial diluted peptides were added. After 3 days the supernatant was removed and 100 µL CellTiter–Glo Reagent 1:1 diluted in PBS was added. After 10 min 50 µL was transferred to white microplate and luminescence was recorded by Orion microplate luminometer.
2. Cell Viability of Representatively Selected Peptides
Figure S 2 Cell Viability normalized to 100% metabolic activity as determined by CellTiterGlo Assay of 57 representatively selected peptides from the library. The selection represents infectivity enhancing and not […]
concentration. Error bars indicate standard deviation from triplicate measurements. Source data for Figure S2 […]
Figure S3 Cell Viability normalized to 100% metabolic activity determined by CellTiterGlo Assay of 20 peptides reported in literature. 33,34,43–48,35–42 Cell viability (> 80%) is maintained for all peptides at 1.3 µM concentration regardless of the preparation method, which is A PNF formation method by dilution of 10 mg/mL peptide stock in DMSO in PBS to 1 mg/mL or B preparation according to literature reported protocol (SI Section 8). Error bars indicate standard deviation from triplicate measurements. Source data for Figure S3 is provided.

CKIKQII
Number of Aggregates / Aggregate Number [1]: 76 ± 12 and 76

RGDSGGGGGGKIKIQIC
Number of Aggregates / Aggregate Number [1]: 72

CKFKQFFNM
Number of Aggregates / Aggregate Number [1]: 704 ± 90 and 704

CQFQFQF
Number of Aggregates / Aggregate Number [1]: 46

HHHHKIKIKIKIWWWW [TM4]
Conversion Rate / % ( from sieste 2021 or Schilling2019) [2]: 96% | Avg Area in 3 *(1330 µm *1330 µm) ([1]; Fig S8 panels A, C): 50.02 | Log 10 Number of aggregates in 3 * (1330 µm *1330 µm) ([1]; Fig S8 panels A, C): 2.649 | Median Area in 3 * (1330 µm *1330 µm) ([1]; Fig S8 panels A, C): 24.51 | log Avg Area in 3 * ( (1330 µm *1330 µm)) ([1]; Fig S8 panels A, C): 1.699 | log Median Area in 3 * ( (1330 µm *1330 µm)) ([1]; Fig S8 panels A, C): 1.389 | log Total Area of all particles in 3 * (1330 µm *1330 µm) ([1]; Fig S8 panels A, C): 4.348 | Number of aggregates in 3 * (1330 µm *1330 µm) ([1]; Fig S8 panels A, C, 3 fields of 1330 µm x 1330 µm): 445.7 | Avg Area in 3 *(1330 µm *1330 µm) ([1]; Fig S8 panels B, D, average aggregate area, 3 fields of 1330 µm x 1330 µm): 50.02 | Median Area in 3 * (1330 µm *1330 µm) ([1]; Fig S8 panels B, D, median aggregate area, 3 fields of 1330 µm x 1330 µm): 24.51 | Total Area of all particles in 3 * (1330 µm *1330 µm) ([1]; Fig S8 panels B, D, total area of all particles, 3 fields of 1330 µm x 1330 µm): 22293.86733 | Number of aggregates in 3 * (1330 µm *1330 µm) ([1]; Fig S8 panels B, D, widefield fluorescence microscopy, 3 fields of 1330 µm x 1330 µm): 445.7 | viability 0.26 µM (TZM-bl cells; peptide 0.26 µM): 89.63 | viability 1.3 µM (TZM-bl cells; peptide 1.3 µM): 83.12 | viability 6.5 µM (TZM-bl cells; peptide 6.5 µM): 68.76

KIKIQIC
Number of Aggregates / Aggregate Number [1]: 82

CKAKAQANMWQ
Number of Aggregates / Aggregate Number [1]: 6

CKIKIQI
Number of Aggregates / Aggregate Number [1]: 317 ± 36 and 317

CKIKQIINMWQ
Number of Aggregates / Aggregate Number [1]: 195

HHHHKIKIQINMYYYY
Number of Aggregates / Aggregate Number [1]: 234

CSISIQI
Number of Aggregates / Aggregate Number [1]: 123

HHHHKIKIKIKIYYYY
Number of Aggregates / Aggregate Number [1]: 147

HHHHKIKIKIKIWWWW
Number of Aggregates / Aggregate Number [1]: 446

CKFKFQFW
Number of Aggregates / Aggregate Number [1]: 517
